Measured values from patent US4698350A, “1-ethyl-6-fluoro-1,4-dihydro- 7-(2,6-dimethyl-4-pyridinyl)-4-oxo-3-quinolinecarboxylic acid and antibacterial use thereof” (Sterling Drug Inc., priority 1984, dated 1987).
Values after ≈ are worked out from the molar mass of the structure shown. Where two headings read alike, the source gives them in different places.

Columns and labels:
S. edidermidis = experiment: In vitro MIC/MBC summary (Table II); assay type: cell-based, S. epidermidis; conditions: Staphylococcus epidermidis, 5 S. edidermidis strains
Method: (§1) Win 52,522 and Win 35,439 were solubilized in 0.1 ml of 0.5 N NaOH/mg of compound and diluted in sterile distilled water to 160 mcg/ml. Vancomycin and methicillin were solubilized in sterile distilled water to 1250 mcg/ml of base compound. The stock solutions were sterilized by filtration through membrane filters with a 0.45 μm pore size.
(§2) The bacterial cultures listed in Table I (hereinbelow) were grown overnight at 37° C. in MHB for all cultures except the Streptococcus strains. These were grown in BHI+10% NHS. The overnight broth cultures were adjusted to an optical density of 0.10 (650 nm, B L Spectronic 20) in sterile distilled water and subsequently diluted to 6.7×10^6 cells/ml in MHB or BHI+1% NHS.
(§3) Serial two-fold dilutions of the compound solutions were prepared in MHB (or in BHI+1% NHS for tests with Streptococci) and dispensed into 96-well microtiter trays in a volume of 0.1 ml/well using a Sandy Springs (Bellco Glass Co.) dispenser. The trays were then inoculated with 0.0015 ml of a suspension containing 6.7×10^6 cells/ml of the appropriate inoculum using a MIC-2000 inoculator (Dynatech Corp.) resulting in a final inoculum of approximately 1×10^4 cells/well or 1×10^5 cells/ml. The trays were incubated at 37° C. for 18-20 hours and the minimal inhibitory concentration (MIC), defined as the lowest concentration of compound to inhibit visible bacterial growth, was recorded.
(§4) After the MIC values were recorded, the contents in the microtiter trays were thoroughly mixed on a Bellco Mini-orbital Shaker (Bellco Glass Co.) for 3 min. at a setting of 8. A portion (0.0015 ml) from each well was then transferred via an MIC-2000 inoculator to plates containing MHA or BHI agar+10% NHS. The plates were incubated at 37° C. for 18-20 hrs. The minimal bactericidal concentration (MBC), defined as the lowest concentration of compound that prevented the formation of a recognizable colony on the agar surface, was recorded.

S. aureus = experiment: In vitro MIC/MBC summary (Table II); assay type: cell-based; conditions: Staphylococcus aureus, 15 S. aureus strains
Method: as §1, §2, §3, §4

Streptococcus sp. = experiment: In vitro MIC/MBC summary (Table II); assay type: cell-based
Method: as §1, §2, §3, §4

[1] = tested on: Staphylococcus aureus 39881 (Methicillin-resistant); experiment: Mouse protection test, S. aureus 39881 (methicillin-resistant) infection; assay type: in vivo, ICR mice; Staphylococcus aureus; conditions: for Survivors/Total: two doses; for ED50: Staphylococcus aureus, 168 h, read-out: Protective Dose 50% (95% Confidence Limits); for ED50 / Protective Dose 50% (95% Confidence Limits): two doses one-half and four hours postinfection; for Protective Dose 50% (95% Confidence Limits): 10080 min
Method: ICR mice, female, 18-20 grams each.
Solutions of Win 52,522 and Win 35,439 were prepared by dissolving the appropriate weight of drug in 0.3 to 0.4 ml of 1 N NaOH and then bringing the solutions to the desired volume with distilled water. Methicillin and vancomycin were dissolved directly in distilled water.
The culture was streaked onto three Brain Heart Infusion Agar plates and incubated 16 hours at 37° C. The cells were washed off each plate with five ml of saline and the cell suspension was shaken with glass beads for two minutes on a paint shaker. The suspension was diluted with saline so that a […] gave a 44% T reading on a B+L Spectronic 20 (650 nm) calibrated with saline. The stock suspension was diluted 1:24 (10 ml stock suspension+230 ml 5% mucin) to obtain the test inoculum containing 1.55×10^9 cells/ml.
Mice were inoculated intraperitoneally with 0.5 ml of the bacterial test inoculum.
Mice were medicated twice: at one-half and four hours postinfection. The drugs were administered by both subcutaneous (0.2 ml) and oral (0.5 ml) routes.
Deaths were recorded daily for seven days for all tests. Fifty percent protective dose values (PD50's) were calculated using probit analysis [SAS Users Guide: Statistics, 1982 Edition, SAS Institute, Inc., Cary, N.C.].

S. aureus 13-8-A = experiment: In vitro antibacterial MIC/MBC test; assay type: cell-based; conditions: Staphylococcus aureus, 138A, S. aureus 13-8-A
Summary of the method: (§5)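 MIC: 2-fold dilutions, MHB or BHI+1% NHS (streptococci), ~1×10^4 cells/well (~1×10^5 cells/ml), 37° C./18-20 h, visible growth endpoint. MBC: wells subcultured to MHA or BHI agar+10% NHS, 37° C./18-20 h, no recognizable colony.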

S. epidermidis 2-1-B = experiment: In vitro antibacterial MIC/MBC test; assay type: cell-based; conditions: Staphylococcus epidermidis, 21B, S. epidermidis 2-1-B
Summary of the method: as §5

S. aureus Smith = experiment: In vitro antibacterial MIC/MBC test; assay type: cell-based; conditions: Staphylococcus aureus, S. aureus Smith
Summary of the method: as §5

S. aureus VA16951 = experiment: In vitro antibacterial MIC/MBC test; assay type: cell-based; conditions: Staphylococcus aureus, S. aureus VA16951
Summary of the method: as §5

S. aureus 10-81 = experiment: In vitro antibacterial MIC/MBC test; assay type: cell-based; conditions: Staphylococcus aureus, 1081, S. aureus 10-81
Summary of the method: as §5

S. faecalis 4510 = experiment: In vitro antibacterial MIC/MBC test; assay type: cell-based; conditions: Enterococcus faecalis, S. faecalis 4510
Summary of the method: as §5

S. aureus S-500 = experiment: In vitro antibacterial MIC/MBC test; assay type: cell-based; conditions: Staphylococcus aureus, S500, S. aureus S-500
Summary of the method: as §5

S. epidermidis (12228) = experiment: In vitro antibacterial MIC/MBC test; assay type: cell-based; conditions: Staphylococcus epidermidis, ATCC12228, S. epidermidis ATCC No. 12228
Summary of the method: as §5

## CCn1cc(C(=O)O)c(=O)c2cc(F)c(-c3cc(C)nc(C)c3)cc21 [Win 52,522, 1-ethyl-6-fluoro-1,4-dihydro-7-(2,6-dimethyl-4-pyridinyl)-4-oxo-3-quinolinecarboxylic acid]
S. edidermidis; read-out: MBC 50%
  MBC: 0.06 µg/mL (≈ 0.176 µM)
S. edidermidis; read-out: MBC 90%
  MBC: 0.06 µg/mL (≈ 0.176 µM)
S. edidermidis; read-out: MBC Range
  MBC: 0.03 to 0.125 µg/mL (≈ 0.0881 to 0.367 µM)
S. edidermidis; read-out: MIC 50%
  MIC50: 0.06 µg/mL (≈ 0.176 µM)
S. edidermidis; read-out: MIC 90%
  MIC90: 0.06 µg/mL (≈ 0.176 µM)
S. edidermidis; read-out: MIC Range
  MIC: 0.03 to 0.06 µg/mL (≈ 0.0881 to 0.176 µM)
S. aureus; read-out: MBC Range
  MBC: 0.015 to 0.06 µg/mL (≈ 0.0441 to 0.176 µM)
S. aureus; read-out: MIC 50%
  MIC50: 0.015 µg/mL (≈ 0.0441 µM)
S. aureus; read-out: MIC 90%
  MIC90: 0.03 µg/mL (≈ 0.0881 µM)
S. aureus; read-out: MIC Range
  MIC: 0.008 to 0.03 µg/mL (≈ 0.0235 to 0.0881 µM)
Streptococcus sp.; 9 Streptococcus sp. strains, read-out: MBC 50%
  MBC: 0.5 µg/mL (≈ 1.47 µM)
Streptococcus sp.; 9 Streptococcus sp. strains, read-out: MBC 90%
  MBC: 0.5 µg/mL (≈ 1.47 µM)
Streptococcus sp.; 9 Streptococcus sp. strains, read-out: MBC Range
  MBC: 0.125 to 0.5 µg/mL (≈ 0.367 to 1.47 µM)
Streptococcus sp.; 9 Streptococcus sp. strains, read-out: MIC 50%
  MIC50: 0.25 µg/mL (≈ 0.735 µM)
Streptococcus sp.; 9 Streptococcus sp. strains, read-out: MIC Range
  MIC: 0.125 to 0.5 µg/mL (≈ 0.367 to 1.47 µM)
Streptococcus sp.; Streptococcus
  MIC90: 0.5 µg/mL (≈ 1.47 µM)
[1]; 0.19 mg/kg po
  Survivors/Total: 0/10
[1]; 0.19 mg/kg sc
  Survivors/Total: 0/10
[1]; 0.39 mg/kg po
  Survivors/Total: 0/10
[1]; 0.39 mg/kg sc
  Survivors/Total: 0/10
[1]; 0.78 mg/kg po
  Survivors/Total: 1/10
[1]; 0.78 mg/kg sc
  Survivors/Total: 2/10
[1]; 1.56 mg/kg po
  Survivors/Total: 4/10
[1]; 1.56 mg/kg sc
  Survivors/Total: 10/10
[1]; 3.13 mg/kg po
  Survivors/Total: 10/10
[1]; 3.13 mg/kg sc
  Survivors/Total: 9/10
[1]; 6.25 mg/kg po
  Survivors/Total: 10/10
[1]; 6.25 mg/kg sc
  Survivors/Total: 10/10
[1]; po
  ED50: 1.6 mg/kg
  Protective Dose 50% (95% Confidence Limits): 1.6(1.3-2.4) mg/kg
[1]; sc
  ED50: 1.1 mg/kg
  times more active than Win 35,439: 4.5 times
  times more efficacious/active than vancomycin: 16 times
  Protective Dose 50% (95% Confidence Limits): 1.1(0.1-4.1) mg/kg
[1]; methicillin-resistant S. aureus infection in mice
  times more efficacious than methicillin: > 91 times
S. aureus 13-8-A; read-out: MBC
  MBC: 0.03 µg/mL (≈ 0.0881 µM)
S. aureus 13-8-A; read-out: MIC
  MIC: 0.03 µg/mL (≈ 0.0881 µM)
S. epidermidis 2-1-B; read-out: MBC
  MBC: 0.03 µg/mL (≈ 0.0881 µM)
S. epidermidis 2-1-B; read-out: MIC
  MIC: 0.03 µg/mL (≈ 0.0881 µM)
S. aureus Smith; read-out: MBC
  MBC: 0.03 µg/mL (≈ 0.0881 µM)
S. aureus Smith; read-out: MIC
  MIC: 0.03 µg/mL (≈ 0.0881 µM)
S. aureus VA16951; read-out: MBC
  MBC: 0.015 µg/mL (≈ 0.0441 µM)
S. aureus VA16951; read-out: MIC
  MIC: 0.015 µg/mL (≈ 0.0441 µM)
S. aureus 10-81; read-out: MBC
  MBC: 0.03 µg/mL (≈ 0.0881 µM)
S. aureus 10-81; read-out: MIC
  MIC: 0.03 µg/mL (≈ 0.0881 µM)
S. faecalis 4510; read-out: MBC
  MBC: 0.125 µg/mL (≈ 0.367 µM)
S. faecalis 4510; read-out: MIC
  MIC: 0.125 µg/mL (≈ 0.367 µM)
S. aureus S-500; read-out: MBC
  MBC: 0.06 µg/mL (≈ 0.176 µM)
S. aureus S-500; read-out: MIC
  MIC: 0.03 µg/mL (≈ 0.0881 µM)
S. epidermidis (12228); read-out: MBC
  MBC: 0.06 µg/mL (≈ 0.176 µM)
S. epidermidis (12228); read-out: MIC
  MIC: 0.06 µg/mL (≈ 0.176 µM)
